In ChEMBL document CHEMBL1132553, “Design, synthesis, and biological evaluation of matrix metalloproteinase inhibitors derived from a modified proline scaffold” (J Med Chem, 1999):

What was measured:
Collagenase 3 = Collagenase 3 (Homo sapiens, UniProt P45452); assay: In vitro inhibition of human recombinant collagenase-3 (Matrix metalloprotease-13)
Matrilysin = molecular target: T1, Matrilysin (Homo sapiens, UniProt P09237); assay: In vitro inhibition of matrilysin (Matrix metalloprotease-7, MMP-7)
T1 sequence (P09237 whole entry): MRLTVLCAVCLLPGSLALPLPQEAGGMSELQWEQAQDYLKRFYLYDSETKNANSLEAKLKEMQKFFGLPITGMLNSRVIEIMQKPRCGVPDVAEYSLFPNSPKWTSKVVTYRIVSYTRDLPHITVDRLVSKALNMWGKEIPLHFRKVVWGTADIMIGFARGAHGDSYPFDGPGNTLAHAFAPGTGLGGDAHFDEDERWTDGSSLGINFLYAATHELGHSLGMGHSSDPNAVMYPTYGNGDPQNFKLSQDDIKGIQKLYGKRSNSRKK

Interstitial collagenase = molecular target: T2, Interstitial collagenase (Homo sapiens, UniProt P03956); assay: In vitro inhibition of human recombinant collagenase-1 (Matrix metalloprotease-1, MMP-1)
T2 sequence (P03956 whole entry): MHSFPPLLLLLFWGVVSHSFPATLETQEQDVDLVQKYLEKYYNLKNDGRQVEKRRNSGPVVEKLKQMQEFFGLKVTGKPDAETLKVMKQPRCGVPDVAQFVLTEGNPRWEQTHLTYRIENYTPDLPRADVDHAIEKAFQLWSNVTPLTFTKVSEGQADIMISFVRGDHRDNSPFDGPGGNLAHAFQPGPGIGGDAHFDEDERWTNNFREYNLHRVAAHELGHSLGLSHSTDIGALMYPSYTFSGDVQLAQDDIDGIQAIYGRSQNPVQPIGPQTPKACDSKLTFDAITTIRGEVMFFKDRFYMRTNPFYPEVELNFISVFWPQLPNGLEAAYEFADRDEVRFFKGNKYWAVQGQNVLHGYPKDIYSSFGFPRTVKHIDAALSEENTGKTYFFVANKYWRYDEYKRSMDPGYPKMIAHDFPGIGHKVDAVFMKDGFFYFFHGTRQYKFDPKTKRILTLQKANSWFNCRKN

Stromelysin-1 = Stromelysin-1 (Homo sapiens, UniProt P08254); assay: In vitro inhibition activity of human recombinant stromelysin (Matrix metalloprotease-3)
Sequence of Stromelysin-1 (P08254 whole entry): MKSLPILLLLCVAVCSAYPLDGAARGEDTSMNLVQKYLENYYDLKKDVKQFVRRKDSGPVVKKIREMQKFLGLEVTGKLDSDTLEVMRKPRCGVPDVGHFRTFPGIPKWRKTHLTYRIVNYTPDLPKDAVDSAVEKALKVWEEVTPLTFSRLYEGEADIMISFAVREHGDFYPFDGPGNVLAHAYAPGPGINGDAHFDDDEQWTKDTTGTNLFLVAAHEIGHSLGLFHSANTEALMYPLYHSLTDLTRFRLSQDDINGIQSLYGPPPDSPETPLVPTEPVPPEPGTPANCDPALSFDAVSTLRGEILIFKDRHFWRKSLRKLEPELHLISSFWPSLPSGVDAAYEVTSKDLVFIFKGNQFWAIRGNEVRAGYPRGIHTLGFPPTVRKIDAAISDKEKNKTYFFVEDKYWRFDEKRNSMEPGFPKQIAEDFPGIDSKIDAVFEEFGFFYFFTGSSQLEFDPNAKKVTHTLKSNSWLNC

Rattus norvegicus [1] = species on record: Rattus norvegicus; assay: In vitro percent permeability into rat ileum; Range is 28-36; format: ADME; details: in vivo
[2] = molecular target: 72 kDa type IV collagenase (Homo sapiens, UniProt P08253)
Sequence of 72 kDa type IV collagenase (P08253 whole entry): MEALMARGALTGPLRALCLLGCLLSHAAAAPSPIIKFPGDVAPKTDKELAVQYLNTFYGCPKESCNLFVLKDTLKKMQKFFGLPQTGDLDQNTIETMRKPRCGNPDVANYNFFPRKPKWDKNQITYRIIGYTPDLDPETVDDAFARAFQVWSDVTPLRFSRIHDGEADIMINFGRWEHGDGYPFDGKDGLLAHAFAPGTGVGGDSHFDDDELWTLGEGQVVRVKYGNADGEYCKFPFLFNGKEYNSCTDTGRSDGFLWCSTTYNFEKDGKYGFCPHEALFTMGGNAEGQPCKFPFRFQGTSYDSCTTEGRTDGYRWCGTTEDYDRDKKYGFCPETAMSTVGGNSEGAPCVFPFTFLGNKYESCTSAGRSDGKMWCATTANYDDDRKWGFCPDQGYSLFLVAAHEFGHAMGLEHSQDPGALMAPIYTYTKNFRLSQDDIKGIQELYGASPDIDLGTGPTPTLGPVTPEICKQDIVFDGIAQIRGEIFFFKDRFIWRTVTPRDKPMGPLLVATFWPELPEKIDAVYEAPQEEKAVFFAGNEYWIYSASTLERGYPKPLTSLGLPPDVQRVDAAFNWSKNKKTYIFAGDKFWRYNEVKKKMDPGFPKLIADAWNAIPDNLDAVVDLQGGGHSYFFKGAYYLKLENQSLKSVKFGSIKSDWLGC
Description: In vitro inhibitory activity against gelatinase-A (matrix metalloprotease-2).

Rattus norvegicus [3] = species on record: Rattus norvegicus; assay: In vitro percent permeability into rat ileum; nd indicates not detected; format: ADME; details: in vivo
Rattus norvegicus [4] = species on record: Rattus norvegicus; assay: In vitro percent permeability into rat ileum; Range is 2-5; format: ADME; details: in vivo
Rattus norvegicus [5] = species on record: Rattus norvegicus; assay: In vitro percent permeability into rat ileum; Range is 15-18; format: ADME; details: in vivo
Rattus norvegicus [6] = species on record: Rattus norvegicus; assay: In vitro percent permeability into rat ileum; format: ADME; details: in vivo
Rattus norvegicus [7] = species on record: Rattus norvegicus; assay: In vitro percent permeability into rat ileum; Range is 50-68; format: ADME; details: in vivo
Rattus norvegicus [8] = species on record: Rattus norvegicus; assay: In vitro percent permeability into rat ileum; Range is 29-35; format: ADME; details: in vivo
Rattus norvegicus [9] = species on record: Rattus norvegicus; assay: In vitro percent permeability into rat ileum; nt indicates not detected; format: ADME; details: in vivo
Rattus norvegicus [10] = species on record: Rattus norvegicus; assay: In vitro percent permeability into rat ileum; Range is 10-19; format: ADME; details: in vivo
Rattus norvegicus [11] = species on record: Rattus norvegicus; assay: In vitro percent permeability into rat ileum; Range is 46-66; format: ADME; details: in vivo
Rattus norvegicus [12] = species on record: Rattus norvegicus; assay: In vitro percent permeability into rat ileum; Range is 12-15; format: ADME; details: in vivo
Rattus norvegicus [13] = species on record: Rattus norvegicus; assay: In vitro percent permeability into rat ileum; Range is 13-19; format: ADME; details: in vivo
Rattus norvegicus [14] = species on record: Rattus norvegicus; assay: In vitro percent permeability into rat ileum; insol indicates not soluble in aqueous buffer; format: ADME
[15] = In vitro percent permeability into rat ileum; Range is 23-42; format: ADME, tissue-based
Rattus norvegicus [16] = species on record: Rattus norvegicus; assay: In vitro percent permeability into rat ileum; Range is 78-81; format: ADME; details: in vivo
Rattus norvegicus [17] = species on record: Rattus norvegicus; assay: In vitro percent permeability into rat ileum; Range is 14-17; format: ADME; details: in vivo
Rattus norvegicus [18] = species on record: Rattus norvegicus; assay: In vitro percent permeability into rat ileum; Range is 10-17; format: ADME; details: in vivo

IC50 (Collagenase 3) [nM] | IC50 (Matrilysin) [nM] | IC50 (Interstitial collagenase) [nM] | IC50 (Stromelysin-1) [nM] | IC50 [2] [nM] | SMILES | further results
0.3 | 89 | 26 | 1 | < 1 | CCCCOc1ccc(S(=O)(=O)N2C/C(=N\OC)C[C@@H]2C(=O)NO)cc1 | Absorption (Rattus norvegicus [1]): 36%
0.3 | 307 | 119 | 5 | 0.2 | CCCCOc1ccc(S(=O)(=O)N2C/C(=N\O)C[C@@H]2C(=O)NO)cc1 | Absorption (Rattus norvegicus [4]): 5%
< 0.4 | 60 | 3 | 2 | < 0.4 | CO/N=C1/C[C@H](C(=O)NO)N(S(=O)(=O)c2ccc(Oc3ccccc3)cc2)C1 | Absorption (Rattus norvegicus [5]): 18%
0.2 | – | 17 | 5 | 0.2 | COc1ccc(S(=O)(=O)N2C/C(=N\O)C[C@@H]2C(=O)NO)cc1 | Absorption (Rattus norvegicus [8]): 35%
0.4 | 294 | 74 | 11 | 0.5 | CCCCOc1ccc(S(=O)(=O)N2C/C(=N\OC(C)(C)C)C[C@@H]2C(=O)NO)cc1 | Absorption (Rattus norvegicus [9]): None detected
4 | 12300 | 90 | – | – | C=C1C[C@H](C(=O)NO)N(S(=O)(=O)c2ccc(OC)cc2)C1 | Absorption (Rattus norvegicus [11]): 66%
< 1 | 381 | 13 | 2 | < 0.4 | CCCOc1ccc(S(=O)(=O)N2C/C(=N\OC)C[C@@H]2C(=O)NO)cc1 | –
< 0.5 | 263 | 20 | 9 | 0.7 | COc1ccc(S(=O)(=O)N2C/C(=N\OC(C)(C)C)C[C@@H]2C(=O)NO)cc1 | Absorption (Rattus norvegicus [13]): 19%
0.7 | 1060 | 22 | 16 | 0.3 | CCOc1ccc(S(=O)(=O)N2C/C(=N\OC)C[C@@H]2C(=O)NO)cc1 | Absorption [15]: 42%
3 | 5230 | 255 | 20 | 4 | COc1ccc(S(=O)(=O)N2CC(NOC(C)(C)C)C[C@@H]2C(=O)NO)cc1 (some centres undefined) | –
< 0.5 | 82 | 10 | 3 | < 1 | CO/N=C1/C[C@H](C(=O)NO)N(S(=O)(=O)c2ccc(OC)cc2)C1 | Absorption (Rattus norvegicus [16]): 81%
< 0.4 | 612 | 109 | 15 | 0.5 | COCCOc1ccc(S(=O)(=O)N2C/C(=N\OC)C[C@@H]2C(=O)NO)cc1 | –
< 0.4 | 785 | 26 | 5 | < 0.4 | CC(C)(C)O/N=C1/C[C@H](C(=O)NO)N(S(=O)(=O)c2ccc(Oc3ccncc3)cc2)C1 | –
0.8 | < 24 | 3 | < 1 | < 0.4 | CO/N=C1/C[C@H](C(=O)NO)N(S(=O)(=O)c2ccc(Oc3ccc(F)cc3)cc2)C1 | –
0.5 | 39 | 39 | 2 | < 0.4 | CCCCOc1ccc(S(=O)(=O)N2C/C(=N\OCC)C[C@@H]2C(=O)NO)cc1 | Absorption (Rattus norvegicus [18]): 17%

Further lines, the compound ahead of its results:

SMILES | IC50 (Collagenase 3) [nM] | IC50 (Matrilysin) [nM] | IC50 (Interstitial collagenase) [nM] | IC50 (Stromelysin-1) [nM] | IC50 [2] [nM] | further results
O=C(NO)[C@H]1C/C(=N/Oc2ccccc2)CN1S(=O)(=O)c1ccc(Oc2ccncc2)cc1 | 0.4 | 785 | 32 | 5 | – | Absorption (Rattus norvegicus [3]): None detected
CCCCOc1ccc(S(=O)(=O)N2C/C(=N\N3CCOCC3)C[C@@H]2C(=O)NO)cc1 | < 1 | 196 | 293 | 2 | – | Absorption (Rattus norvegicus [6]): 1%
CO/N=C1/C[C@H](C(=O)NO)N(S(=O)(=O)c2ccc(Oc3ccncc3)cc2)C1 | < 0.2 | 922 | – | 5 | 0.3 | Absorption (Rattus norvegicus [7]): 68%
C=C1C[C@H](C(=O)NO)N(S(=O)(=O)c2ccc(OCCC)cc2)C1 | 1 | 2550 | 155 | 16 | 2 | –
C=C1C[C@H](C(=O)NO)N(S(=O)(=O)c2ccc(OCCCC)cc2)C1 | 0.7 | 1080 | 329 | 15 | 0.8 | –
CONC1C[C@H](C(=O)NO)N(S(=O)(=O)c2ccc(Oc3ccccc3)cc2)C1 (some centres undefined) | < 0.4 | 1790 | 86 | 6 | < 0.4 | –
CCCCOc1ccc(S(=O)(=O)N2C/C(=N\N3CCNCC3)C[C@@H]2C(=O)NO)cc1 | < 1 | 343 | 184 | 3 | – | Absorption (Rattus norvegicus [10]): 19%
CONC1C[C@H](C(=O)NO)N(S(=O)(=O)c2ccc(OC)cc2)C1 (some centres undefined) | 3 | 3390 | 212 | 19 | 5 | Absorption (Rattus norvegicus [12]): 15%
CC(C)(C)O/N=C1/C[C@H](C(=O)NO)N(S(=O)(=O)c2ccc(Oc3ccc(F)cc3)cc2)C1 | 0.2 | 1030 | 24 | < 1 | < 0.4 | Absorption (Rattus norvegicus [14]): Insoluble
C=C1C[C@H](C(=O)NO)N(S(=O)(=O)c2ccc(Oc3ccccc3)cc2)C1 | < 0.4 | 53 | 15 | 14 | 0.4 | –
COCCOc1ccc(S(=O)(=O)N2CC(NOC)C[C@@H]2C(=O)NO)cc1 (some centres undefined) | 8 | 6720 | – | 222 | 11 | –
CCCCOc1ccc(S(=O)(=O)N2C/C(=N\OCC(C)C)C[C@@H]2C(=O)NO)cc1 | < 0.1 | 420 | 75 | 12 | < 0.4 | –
CCCCOc1ccc(S(=O)(=O)N2CC(NOC)C[C@@H]2C(=O)NO)cc1 (some centres undefined) | 2 | 2080 | 790 | 21 | 1 | Absorption (Rattus norvegicus [17]): 17%
C=C1C[C@H](C(=O)NO)N(S(=O)(=O)c2ccc(OCCOC)cc2)C1 | 11 | > 9990 | 1550 | 69 | 9 | –
CCCCOc1ccc(S(=O)(=O)N2C/C(=N\OCc3ccccc3)C[C@@H]2C(=O)NO)cc1 | 0.1 | 490 | 127 | 17 | < 0.4 | –
